Laboratory results published in US5773431A (priority 1997, dated 1998).
pIC50: −log10 of the molar value. Structures can show the parent of a compound that is named as a salt.

Columns and labels:
[1] = test system: sterol 27-hydroxylase (BAE cells); test: Sterol 27-hydroxylase activity in BAE cells (metabolites in medium by GLC-MS); format: cell-based, bovine; details: for Proportion of C27 bile acid of total metabolite: cholesterol-supplemented medium; for Synthesis by BAE cells: amount in medium: delipidated FBS + 20 nmol/ml cholesterol
Method: (§1) Bovine aortic endothelial (BAE) cells obtained from a slaughterhouse were plated at low density (2×10^5 cells/cm^2) in 100-mm dishes and were grown to confluence in Dulbecco's modified Eagle medium (DMEM) supplemented with 10% fetal bovine serum (FBS), 50 units/ml penicillin, and 50 units/ml streptomycin at 37° C. in a 5% CO2 atmosphere. The confluent monolayer was rinsed once with Hank's balanced salt solution, and 4 ml of DMEM containing 10% […] FBS and either 20 μM cholesterol dissolved in 2-hydroxypropyl-β-cyclodextrin or an equivalent amount of vehicle alone was added to each dish. Hep G2 cells and Chinese hamster ovary cells (CHO) were cultured under identical conditions and for the same length of time. At 24-h intervals, the media and cells were harvested. The medium obtained from each dish was analyzed for metabolites. Cells were pooled for immunoblot analysis.
(§2) Following acidification and extraction into ethyl acetate, the dried residue was saponified. In some studies, solvolysis was also done prior to extraction.
(§3) Using a Hewlett-Packard GLC-MS (Model #5890-5970) and a fused silica column (CP-sil 19 CB, 0.25 mm i.d., 25 m length; Chrompack, Raritan, N.J.), the appropriate TLC fractions were injected in the splitless mode with temperature programming from 260° C. to 270° C. at 1.0° C./min and a column head pressure of 5 psi.
(§4) For the C27 acid, the ion pair that was used was m/z […] [methyl ester acetate mol ion=476-60 (acetate)] and m/z 416, and for the C24 acid, m/z 370 [mol ion methyl ester acetate=430-60 (acetate)] and m/z 373.

[2] = test system: sterol 27-hydroxylase (Hep G2 cells); test: Sterol 27-hydroxylase activity in Hep G2 cells (metabolites in medium by GLC-MS); format: cell-based; details: HEP G2 (n = 6), 72 h, 20 μM cholesterol; for Metabolites Derived from Sterol 27-Hydroxylase: 3βOH-5-cholen. a.: mean value of 2 dishes after solvolysis
Method: as §1, §2, §3, §4

[3] = test system: sterol 27-hydroxylase (CHO cells); test: Sterol 27-hydroxylase activity in CHO cells (metabolites in medium by GLC-MS); format: cell-based, Chinese hamster
Method: as §1, §2, §3, §4

[4] = test system: rabbit smooth muscle cells; test: Rabbit smooth muscle cell proliferation (formazan formation from MTS); format: cell-based; details: 24 hr; for Optical density of wells (cell proliferation, MTS formazan): 20 μm, 5% delipidated FBS, control wells 0.402±0.037
Method: Cell proliferation at 24 hr was measured using formazan formation from MTS which is known to correlate with the number of cells present in each well.

[5] = test system: cholesterol synthesis and accumulation; details: cited from earlier work
[6] = test system: intimal thickening of abdominal aorta; test: Vascular injury model: balloon-injured rabbit aorta, intimal thickening by intimal/medial (I/M) ratio; format: in vivo, New Zealand white rabbits
Method: New Zealand white rabbits weighing 2.6 to 5.1 kgs were anesthetized with intramuscular ketamine 35 mg/kg. Additional injections of ketamine (100 mg/cc) and xylazine (20 mg/cc) in a 50/50 mixture were given as necessary in 1 ml increments. Keflin (Eli Lilly & Co.), 30/mg/kg was given intravenously (IV). A longitudinal incision was made on the medial aspect of the distal hind limb to expose the greater saphenous artery. Arteriotomy was performed, and a 3-F Fogarty embolectomy catheter (Edwards Laboratories, Santa Ana, Calif.) was introduced and advanced to the level of the diaphragmatic abdominal aorta. The catheter was withdrawn from the abdominal aorta with the balloon inflated to a pressure of about 20 mm hg. This maneuver was repeated for a total of three passes. The catheter was removed, and the saphenous artery was ligated. […]
The abdominal aortas were fixed by perfusion with glutaraldehyde at physiological pressure via a catheter (14G Intracath) placed in the left ventricle. […] The entire intimal and medial areas in more than 2 sections per specimen were measured using Lucida computer calculation (Micro Brightfield, Inc.). The degree of intimal thickening was determined by calculating the intimal to medial area (I/M) ratio. Statistical significance of the difference in intimal/medial ratio between groups was calculated using student t-test. […]

[7] = test system: smooth muscle cells derived from rat aorta; test: Proliferation of smooth muscle cells derived from rat aorta; format: cell-based, rat (male Sprague-Dawley); details: 72 hr
Method: (§5) Smooth muscle cells were cultured according to Ross (J. Cell. Biol., 50:172, 1971) from the intima-medial layer of male Sprague-Dawley rats (200-250 g). Cells were grown in monolayers at 37° C. in a humidified atmosphere of 5% CO2 in MEM supplemented with 10% FBS, 100 U/ml penicillin, 0.1 mg/ml streptomycin, […] tricine buffer and 1% non-essential amino acid solution (Corsini et al, Atherosclerosis, 101:117, 1993). The medium was changed every third day. Cells were used between the 4th and 10th passage. Cell viability was assessed by trypan blue exclusion. Smooth muscle cells were identified for growth behavior, morphology, and using monoclonal antibody specific for α-actin, using the isoform typical for smooth muscle cells. Human vascular myocytes were taken from a human femoral artery and grown under the same culture conditions.
(§6) Smooth muscle cells derived from rat aorta were seeded at a density of 2×10^5 and those from the femoral artery at a density of 5×10^4. […] Cell proliferation was determined at 72 hr either by trypsinization of the monolayer and counting in a model ZM Coulter Counter or by incorporation of tritiated thymidine after a 3 hr incubation.

[8] = test system: smooth muscle cells derived from human femoral artery; test: Proliferation of smooth muscle cells derived from human femoral artery; format: cell-based; details: Human Femoral A, 72 hr, read-out: Percent of Control Growth
Method: as §5, §6

[9] = test system: L1210 cells; test: Cell proliferation of tumor cell line L1210; format: cell-based; details: read-out: Concentration of 27-Hydroxycholesterol Yielding 50% Growth Inhibition; L1210 cells (mouse leukemia cell line)
Description: (§7) Conventional methods of cell culture were utilized in this experiment.

[10] = test system: K-12 cells; test: Cell proliferation of tumor cell line K-12; format: cell-based; details: K12, read-out: Concentration of 27-Hydroxycholesterol Yielding 50% Growth Inhibition; K-12 cells (adenocarcinoma line)
Description: as §7

[11] = test system: HCT-8; test: Cell proliferation of tumor cell line HCT-8; format: cell-based; details: read-out: Concentration of 27-Hydroxycholesterol Yielding 50% Growth Inhibition; HCT-8 (human colon carcinoma)
Description: as §7

[12] = Nonfasted rabbits, treated
[13] = in hydroxypropyl-beta-cyclodextrin vehicle
[14] = test system: hamster aortic smooth muscle cells; details: six days, at the tested concentration; cited from earlier work
[15] = test system: restenosis; details: high doses, cited from earlier work
[16] = test system: intimal proliferation; details: cited from earlier work
[17] = test system: HCT-8 cells; test: In vitro cytotoxicity test of uridyl derivative with HCT-8 cells (FIG. 1); format: cell-based, human
Description: The results of the experimentation is illustrated in FIG. 1.

[18] = BAE (n = 6), 72 h, 20 μM cholesterol
[19] = CHO (n = 3), 72 h, 20 μM cholesterol

## C[C@H](CCC(=O)O)[C@H]1CC[C@H]2[C@@H]3CC=C4C[C@@H](O)CC[C@]4(C)[C@H]3CC[C@]12C [3β-hydroxy-5-cholenoic acid]
[1]; [18]
  Metabolites Derived from Sterol 27-Hydroxylase: not detected
[2]
  Metabolites Derived from Sterol 27-Hydroxylase: 1940 ± 270 pmol/mg/cell protein
[3]; [19]
  Metabolites Derived from Sterol 27-Hydroxylase: not detected
[3]; compared with Hep G2 or BAE cells
  Amount in the medium from CHO cells: small amount

## CC(CCC[C@@H](C)[C@H]1CC[C@H]2[C@@H]3CC=C4C[C@@H](O)CC[C@]4(C)[C@H]3CC[C@]12C)C(=O)O (stereo partly drawn) [3β-hydroxy-5-cholestenoic acid]
[1]; [18]
  Metabolites Derived from Sterol 27-Hydroxylase: 474 ± 118 pmol/mg/cell protein
[1]; BAE cells, 24 h
  Proportion of C27 bile acid of total metabolite: 3.8%
[1]; BAE cells, 72 h
  Proportion of C27 bile acid of total metabolite: 17%
[1]; 24 h
  Synthesis by BAE cells: amount in medium: 42.5 ± 6.1 pmol/ml medium
[1]; 48 h
  Synthesis by BAE cells: amount in medium: 112 ± 12.4 pmol/ml medium
[1]; 72 h
  Synthesis by BAE cells: amount in medium: 211 ± 48.3 pmol/ml medium
[2]
  Metabolites Derived from Sterol 27-Hydroxylase: 471 ± 126 pmol/mg/cell protein
[3]; [19]
  Metabolites Derived from Sterol 27-Hydroxylase: 2 ± 1 pmol/mg/cell protein
[4]
  Optical density of wells (cell proliferation, MTS formazan): 0.357±0.22

## CC(CN)CCC[C@@H](C)[C@H]1CC[C@H]2[C@@H]3CC=C4C[C@@H](O)CC[C@]4(C)[C@H]3CC[C@]12C (stereo partly drawn) [27-aminocholesterol]
[5]
  Potency as inhibitor of cholesterol synthesis and accumulation relative to 27-hydroxycholesterol: more potent

## C[C@@H](CO)CCC[C@@H](C)[C@H]1CC[C@H]2[C@@H]3CC=C4C[C@@H](O)CC[C@]4(C)[C@H]3CC[C@]12C [27-hydroxycholesterol, cholest-5-ene-3β, 27-diol]
[6]; Run II, 14 days
  Reduction of the degree of intimal thickening as compared with the control group: 1/2
[1]; [18]
  Metabolites Derived from Sterol 27-Hydroxylase: 2555 ± 348 pmol/mg/cell protein
[1]; 24 h
  Synthesis by BAE cells: amount in medium: 1089 ± 111 pmol/ml medium
[1]; 48 h
  Synthesis by BAE cells: amount in medium: 1064 ± 161 pmol/ml medium
[1]; 72 h
  Synthesis by BAE cells: amount in medium: 1029 ± 99 pmol/ml medium
[2]
  Metabolites Derived from Sterol 27-Hydroxylase: 1622 ± 291 pmol/mg/cell protein
[3]; 72 h, cholesterol-supplemented medium
  Amount present in medium from CHO cells (below the limit of detection): < 10 ng per assay
[3]; [19]
  Metabolites Derived from Sterol 27-Hydroxylase: not detected
[4]
  Optical density of wells (cell proliferation, MTS formazan): 0.350±0.021
[4]; p<0.01
  Reduction of optical density compared to control wells: significant reduction
[7]; 1.0 μM, read-out: Percent of Control Growth
  activity at 1 µM: 90%
[7]; 5.0 μM, p < 0.01, read-out: Percent of Control Growth
  activity at 5 µM: 40%
[7]; 7.5 μM, read-out: Percent of Control Growth
  activity at 7.5 µM: 18%
[8]; 1.0 μM
  activity at 1 µM: 100%
[8]; 5.0 μM, p < 0.01
  activity at 5 µM: 53%
[9]
  pIC50: 5.92
[10]
  pIC50: 5.43
[11]
  pIC50: 4.94
[12]
  Distribution of Plasma 27-Hydroxycholesterol, LDL: 55%
[13]
  Viscosity of preparation: very viscous
[14]
  Inhibition of proliferation: about 50%

## CC[C@H](C)C(=O)O[C@H]1C[C@@H](C)C=C2C=C[C@H](C)[C@H](CC[C@@H]3C[C@@H](O)CC(=O)O3)[C@H]21 [Lovastatin]
[15]; six months following percutaneous transluminal coronary angioplasty
  Restenosis: did not decrease restenosis
[15]
  LDL-cholesterol level: markedly decrease

## Cc1ccc(C(=O)Nc2ccc(S(=O)(=O)O)c3cc(S(=O)(=O)O)cc(S(=O)(=O)O)c23)cc1NC(=O)c1cccc(NC(=O)Nc2cccc(C(=O)Nc3cc(C(=O)Nc4ccc(S(=O)(=O)O)c5cc(S(=O)(=O)O)cc(S(=O)(=O)O)c45)ccc3C)c2)c1 [Suramin, suramin, reference compound]
[6]; Run I, 14-day, test group of 5 rabbits, suramin p < 0.05, 27-hydroxycholesterol 10 mg i.v. day before surgery, 5 mg day of surgery, 5 mg twice a day days 1 to 14, in 45% HPBCD
  Mean Intima/Media Ratio: 0.4089 ± 0.034
[16]
  Inhibition of intimal proliferation: shown to inhibit intimal proliferation

## CC(C)CCC[C@@H](C)[C@H]1CC[C@H]2[C@@H]3CC=C4C[C@@H](O)CC[C@]4(C)[C@H]3CC[C@]12C [cholesterol]
[1]; [18]
  Metabolites Derived from Sterol 27-Hydroxylase, Total: 3029 pmol/mg/cell protein
[1]; BAE cells, 20 nmol/ml cholesterol, 72 h
  Metabolites as percent of the cholesterol added to the medium: approximately 5.8%
[2]
  Metabolites Derived from Sterol 27-Hydroxylase, Total: 4033 pmol/mg/cell protein
[3]; [19]
  Metabolites Derived from Sterol 27-Hydroxylase, Total: 2 pmol/mg/cell protein

## C[C@@H](CO)CCC[C@@H](C)[C@H]1CC[C@H]2[C@@H]3CC=C4C[C@@H](OP(=O)(O)OC[C@H]5O[C@@H](n6ccc(=O)[nH]c6=O)[C@H](O)[C@@H]5O)CC[C@]4(C)[C@H]3CC[C@]12C [uridine derivative, sodium salt of 3-[(25R)-26-hydroxycholesteryl]5'-uridyl monophosphate]
[17]; 500 μM
  Inhibition of cell viability: death of HCT-8 cells: cell death
[17]; 100 to 500 μM, after 5 days of exposure
  Percentage of viable cells: drops dramatically
